Key:
Type in all cases: in vivo, rat
PPAR-γ mRNA = PPAR-γ mRNA expression in renal tissue, semi-quantitative RT-PCR; settings: ABA 40 minutes before reperfusion, FIG. 6
Description: (§1) In another dosage experiment, rats were randomly divided into five groups. The first group was a group of operated rats that underwent ischemia followed by an hour-long reperfusion without being treated with ABA (operated untreated control). The other four groups included operated rats that underwent ischemia followed by an hour-long reperfusion with an intravenous ABA treatment 40 minutes before reperfusion at a final concentration of either 10 μM, 50 μM, 100 μM, or 500 μM of ABA. Upon completion of the one-hour reperfusion, the rats were anesthetized with intraperitoneal injection of ketamine (40 mg/kg) and diazepam (5 mg/kg) and evaluated.
(§2) Following the anesthesia, an abdominal opening technique was performed by a midline laparotomy incision. See, FIGS. 1A-F. After repositioning the intestines, the aorta came into sight and was carefully isolated. After the isolation process, the aorta was occluded for one hour (ischemic period). The clamp was released at the end of the ischemic period to start the reperfusion for one hour. Right after the one-hour reperfusion treatment period, peripheral blood samples were collected and evaluated.
(§3) Total RNA was extracted from the renal tissue samples with TRI reagent (Sigma-Aldrich) according to the manufacturer's instructions. […]

skeletal muscle = assay: Histological analysis of skeletal muscle (m. tensor fasciae latae) after ischemia-reperfusion; settings: 100 μM i.v. at 20th minute of 1 h ischemia, 1 h reperfusion; versus ischemic reperfused operated controls; FIG. 7C
Description: Wistar albino rats (250-280 g) were sham operated (control without ischemia-reperfusion treatment), subjected to ischemia followed by reperfusion (ischemia-reperfusion control), or subjected to ischemia followed by reperfusion with ABA being injected intravenously at a final concentration of 100 μM at the 20th minute of the one hour long ischemic period, which was followed by a one-hour reperfusion. After the one-hour reperfusion periods, tissue samples were obtained from the hind limb (m. tensor fasciae latae) of the rats and fixed in 10% buffered formaldehyde prior to being processed in a paraffin-embedded block. Four-micrometer-thick sections were cut and stained with hematoxylin and eosin.

[1] = test system: Wistar albino rats, ischemia-reperfusion; assay: Reduced glutathione (GSH) levels in whole blood after ischemia-reperfusion
Description: (§4) The rats were divided randomly into four groups. The first group was a group of operated rats that underwent ischemia followed by an hour-long reperfusion without being treated with ABA (operated untreated control). The other three groups included operated rats that underwent ischemia followed by an hour-long reperfusion with an ABA treatment (intravenously; final concentration of 100 μM) either 20 minutes, 40 minutes, or 60 minutes before reperfusion. Upon completion of the one-hour reperfusion, the rats were anesthetized with intraperitoneal injection of ketamine (40 mg/kg) and diazepam (5 mg/kg) and evaluated.
(§5) Rats were randomly divided into five groups. The first group was a group of operated rats that underwent ischemia followed by an hour-long reperfusion without being treated with ABA (operated untreated control). […] Upon completion of the one-hour reperfusion, the rats were anesthetized with intraperitoneal injection of ketamine (40 mg/kg) and diazepam (5 mg/kg) and evaluated.
(§6) In another dosage experiment, rats were randomly divided into five groups. […] Upon completion of the one-hour reperfusion, the rats were anesthetized with intraperitoneal injection of ketamine (40 mg/kg) and diazepam (5 mg/kg) and evaluated.
(§7) Following the anesthesia, an abdominal opening technique was performed by a midline laparotomy incision. […] Right after the one-hour reperfusion treatment period, peripheral blood samples were collected and evaluated.
(§8) Malondialdehyde (MDA) levels were determined in anti-coagulated whole blood using a colorimetric assay as described elsewhere (Ohakawa et al., Anal. Biochem., 95:351-8 (1979)). Reduced glutathione (GSH) levels, as opposed to oxidized GSH, were measured in anti-coagulated whole blood using a colorimetric assay as described elsewhere (Sedlak and Lindsay, Anal. Biochem., 25:192-205 (1968)). Superoxide dismutase (SOD) enzyme activity was measured in washed red blood cells using a colorimetric assay as described elsewhere (Misra and Fridovich, J. Biol. Chem., 247:3170-3175 (1972)). […]

[2] = test system: Superoxide dismutase (SOD); assay: Superoxide dismutase (SOD) enzyme activity in washed red blood cells after ischemia-reperfusion
Description: as §4, §5, §6, §7, §8

[3] = test system: Wistar albino rats, ischemia-reperfusion; assay: Malondialdehyde (MDA) levels in whole blood after ischemia-reperfusion (infrarenal aorta occlusion)
Description: as §4, §5, §6, §7, §8

[4] = test system: Wistar albino rats, ischemia-reperfusion; assay: Total thiol groups (SH) in whole blood after ischemia-reperfusion; settings: 10, 50, 100 and 500 μM, 40 minutes before reperfusion; FIG. 4
Description: as §1
as §7, with “incision. See, FIGS. 1A-F. After repositioning the intestines, the aorta came into sight and was carefully isolated.” for “incision.”
Malondialdehyde (MDA) levels were determined in anti-coagulated whole blood using a colorimetric assay as described elsewhere (Ohakawa et al., Anal. Biochem., 95:351-8 (1979)). Reduced glutathione (GSH) levels, as opposed to oxidized GSH, were measured in anti-coagulated whole blood using a colorimetric assay as described elsewhere (Sedlak and Lindsay, Anal. Biochem., 25:192-205 (1968)). […]

SOD mRNA = SOD mRNA expression in renal tissue, semi-quantitative RT-PCR; settings: increasing amount of ABA (10-500 μM) injected 40 minutes before reperfusion, FIG. 5
Description: as §1, §2, §3

[5] = test system: Wistar albino rats, ischemia-reperfusion; assay: Inhibition of oxidative stress during the ischemia-reperfusion process, stress markers taken together
Description: as §1, with “Rats were” for “In another dosage experiment, rats were”, “treatment 20” for “treatment 40”
as §6, §7
Malondialdehyde (MDA) levels were determined in anti-coagulated whole blood using a colorimetric assay as described elsewhere (Ohakawa et al., Anal. Biochem., 95:351-8 (1979)). […]

CC1=CC(=O)CC(C)(C)[C@@]1(O)/C=C/C(C)=C\C(=O)O [ABA, (2Z,4E)-5-[(1S)-1-hydroxy-2,6,6-trimethyl-4-oxocyclohex-2-en-1-yl]-3-methylpenta-2,4-dienoic acid]
expression of PPAR-γ mRNA (PPAR-γ mRNA): increased expression of PPAR-γ mRNA | extracellular oedema (fiber separation) (skeletal muscle): minimal extracellular oedema | intercellular vacuolization (skeletal muscle): near complete absence of intercellular vacuolization | tissue and cell architecture (skeletal muscle): noticeable helped to preserve of the normal tissue and cell architecture | reduced GSH levels ([1]; 100 μM final concentration, administered 40 or 60 minutes prior to reperfusion, FIG. 2): increases in reduced GSH levels | reduced GSH levels ([1]; 50, 100 and 500 μM, 20 minutes before reperfusion, FIG. 3): decrease in the levels of reduced GSH levels | reduced GSH levels ([1]; 50, 100 and 500 μM, 40 minutes before reperfusion, FIG. 4): increase in the levels of reduced GSH levels | SOD activity ([2]; 100 μM final concentration, all time-points tested (0, 20, 40, 60 minutes before reperfusion), FIG. 2): increases in SOD activity at all time-points tested | SOD activity ([2]; 10, 100 and 500 μM, 40 minutes before reperfusion, FIG. 4): increase in SOD activity | SOD activity ([2]; 100 and 500 μM, 20 minutes before reperfusion, FIG. 3): increase in SOD activity | level of MDA ([3]; 100 μM final concentration, superior mesenteric vein, 0, 20, 40 and 60 minutes before reperfusion, blood after 1 h ischemia and 1 h reperfusion, FIG. 2): efficiently diminished the level of MDA at all time-points tested | level of MDA ([3]; 10, 50, 100 and 500 μM final concentration, 20 minutes before reperfusion, FIG. 3): efficiently diminished the level of MDA | level of MDA ([3]; 100 and 500 μM final concentration, 40 minutes before reperfusion, FIG. 4): efficiently diminished the level of MDA | levels of SH (total thiol groups) [4]: increase in the levels of SH | SOD mRNA expression (SOD mRNA): increased levels of SOD mRNA expression | concentration as low as which ABA inhibits oxidative stress ([5]; 20 minutes before reperfusion): 10 µM | levels as low as which ABA inhibits oxidative stress ([5]; 40 minutes before reperfusion): 10 to 50 µM

From patent US10610501B2, “Methods and materials for reducing ischemia-reperfusion injury” (The University of Pécs (Pécsi Tudományegyetem), priority 2014, dated 2020)
